This passage reports GI50 and TGI results from PubChem BioAssay (NCI).

Test systems include HL-60(TB) leukemia; HS 578T breast; LOX IMVI melanoma; MDA-MB-435; MOLT-4 leukemia; NCI-H460 lung; OVCAR-4 ovarian; SF-295 CNS; SW-620 colon; UACC-257 melanoma.
What all share (assay): inhibition of tumour cell growth, NCI panel, 48 h

Molecules are shown by their SMILES.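 Each compound was tested at five concentrations against cells in 96-well plates for 48 hours. GI50 marks 50% less growth. The concentration for full growth arrest is given as TGI.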

With `N=C(N)c1ccc(-c2ccc(-c3ccccc3)o2)o1`, the GI50 is 2.18 µM with HL-60(TB) leukemia; 3.81 µM in the assay on HS 578T breast; 1.7 µM in the assay with LOX IMVI melanoma; 0.999 µM in the assay on MDA-MB-435; 3.31 µM in the assay with MOLT-4 leukemia; 2.45 µM in the assay with NCI-H460 lung. In addition, the GI50 with OVCAR-4 ovarian was 3.48 µM; with SF-295 CNS, 1.81 µM; in the assay with SW-620 colon, 1.79 µM; with UACC-257 melanoma it was 2.52 µM. The TGI stood at 5.2 µM in the assay on HL-60(TB) leukemia; 21.2 µM in the assay on HS 578T breast; 3.34 µM in the assay on LOX IMVI melanoma; 2.39 µM in the assay on MDA-MB-435; 10.2 µM in the assay on MOLT-4 leukemia; 5.82 µM in the assay with NCI-H460 lung. The TGI in the assay on OVCAR-4 ovarian was found to be 14.5 µM; with SF-295 CNS it was 4.03 µM; with SW-620 colon, 4.2 µM; with UACC-257 melanoma it was 6.35 µM.

With `COc1cccc(-c2nn(C)c3sc(C(=O)NCCN4CCN(c5ccccc5F)CC4)cc23)c1`, the GI50 in the assay with HL-60(TB) leukemia was 33.1 µM; in the assay on HS 578T breast it was 26.2 µM; with LOX IMVI melanoma, 13.4 µM; in the assay with MDA-MB-435, 10.5 µM; in the assay on MOLT-4 leukemia, 5.15 µM; in the assay with NCI-H460 lung, 14.8 µM. Besides, the GI50 in the assay with OVCAR-4 ovarian was 19.1 µM; with SF-295 CNS, 4.85 µM; in the assay with SW-620 colon, 33.7 µM; with UACC-257 melanoma, 28.4 µM. Besides, the TGI in the assay with HL-60(TB) leukemia, with HS 578T breast, in the assay on LOX IMVI melanoma, in the assay on MDA-MB-435, in the assay on MOLT-4 leukemia and in the assay on NCI-H460 lung was over 100 µM each time. Also, the TGI in the assay on OVCAR-4 ovarian is over 100 µM; with SF-295 CNS, 29 µM; with SW-620 colon it was over 100 µM; with UACC-257 melanoma, over 100 µM.

For the molecule `COc1ccc(/C=C/c2cnnc3ccccc23)cc1OC`, the TGI with HL-60(TB) leukemia, in the assay with HS 578T breast, in the assay with LOX IMVI melanoma, with MDA-MB-435, with MOLT-4 leukemia and in the assay with NCI-H460 lung was over 10 µM throughout. Moreover, the TGI in the assay with OVCAR-4 ovarian, in the assay with SF-295 CNS, with SW-620 colon and with UACC-257 melanoma was over 10 µM in each case.

In the case of `C=CCOc1ccc2c(c1)CC[C@@H]1[C@@H]2CC[C@]2(C)C(=O)/C(=N/O)C[C@@H]12`, the GI50 was 0.44 µM with HL-60(TB) leukemia; 1.93 µM with HS 578T breast; 2.49 µM with LOX IMVI melanoma; 3.27 µM in the assay on MDA-MB-435; 2.44 µM in the assay on MOLT-4 leukemia; 4.71 µM in the assay on NCI-H460 lung. For the same molecule, the GI50 in the assay with OVCAR-4 ovarian is 2.17 µM; with SF-295 CNS, 14.6 µM; in the assay with SW-620 colon it was 2.33 µM; with UACC-257 melanoma it was 11.8 µM. The TGI with HL-60(TB) leukemia came out at 6.25 µM; with HS 578T breast it was 11.4 µM; in the assay on LOX IMVI melanoma it was 8.08 µM; in the assay on MDA-MB-435, 17.2 µM; in the assay with MOLT-4 leukemia, 6.92 µM; with NCI-H460 lung it was 22.1 µM. Besides, the TGI is 8.6 µM in the assay with OVCAR-4 ovarian, over 68.2 µM in the assay with SF-295 CNS, 12.2 µM in the assay on SW-620 colon and 59 µM in the assay on UACC-257 melanoma.

For `COc1cc(-c2cc(C(=O)N3CCN(C(=O)c4ccccc4NCc4cccs4)CC3)nc3cc(-c4ccccc4)nn23)cc(OC)c1OC`, the GI50 was 6.15 µM in the assay with HL-60(TB) leukemia; 36.2 µM in the assay with HS 578T breast; 6.04 µM in the assay on LOX IMVI melanoma; 1.16 µM in the assay on MDA-MB-435; 43.7 µM in the assay on MOLT-4 leukemia; 4.26 µM with NCI-H460 lung. The GI50 in the assay with OVCAR-4 ovarian was 5.55 µM; in the assay with SF-295 CNS it was 3.78 µM; with SW-620 colon, 4.7 µM; with UACC-257 melanoma, over 100 µM. The TGI was 75.4 µM in the assay with HL-60(TB) leukemia; over 100 µM with HS 578T breast; over 100 µM in the assay with LOX IMVI melanoma; 4.34 µM in the assay on MDA-MB-435; over 100 µM in the assay on MOLT-4 leukemia; over 100 µM in the assay on NCI-H460 lung. Moreover, the TGI in the assay with OVCAR-4 ovarian, with SF-295 CNS, with SW-620 colon and in the assay on UACC-257 melanoma was over 100 µM each time.

For the molecule `O=C(Nc1ccc(-n2cc(-c3ccncc3)c(-c3ccc(Cl)c(O)c3)n2)cc1)c1ccc(Cl)c(C(F)(F)F)c1`, the GI50 in the assay with HL-60(TB) leukemia was 1.19 µM; in the assay on HS 578T breast it was 0.538 µM; in the assay on LOX IMVI melanoma, 0.344 µM; with MDA-MB-435 it was 1.45 µM; with MOLT-4 leukemia, 0.652 µM; in the assay with NCI-H460 lung, 1.43 µM. For the same molecule, the GI50 in the assay with OVCAR-4 ovarian is 3.66 µM; with SF-295 CNS it was 0.216 µM; in the assay on SW-620 colon, 1.48 µM; in the assay on UACC-257 melanoma, 3.27 µM. Further, the TGI is 1.58 µM in the assay on LOX IMVI melanoma; 13.1 µM in the assay on MDA-MB-435; over 29.3 µM in the assay on MOLT-4 leukemia; 11.1 µM in the assay on NCI-H460 lung; over 90.4 µM with OVCAR-4 ovarian; 0.475 µM in the assay with SF-295 CNS. Further, the TGI in the assay with SW-620 colon turned out to be 3.14 µM; in the assay with UACC-257 melanoma, 39.9 µM.

Take `COc1ccc(S(=O)(=O)Nc2c(/C=C\c3cc(OC)c(OC)c(OC)c3)ccc(OC)c2O)cc1OC`: the GI50 is 0.338 µM with HL-60(TB) leukemia; 0.251 µM in the assay on HS 578T breast; 0.294 µM in the assay on LOX IMVI melanoma; 0.03 µM in the assay on MDA-MB-435; 0.44 µM in the assay on MOLT-4 leukemia; 0.283 µM with NCI-H460 lung. The GI50 was 0.664 µM with OVCAR-4 ovarian, 0.242 µM with SF-295 CNS, 0.167 µM with SW-620 colon and over 78.2 µM in the assay with UACC-257 melanoma. In addition, the TGI was over 100 µM in the assay on HL-60(TB) leukemia; over 100 µM with HS 578T breast; over 100 µM in the assay on LOX IMVI melanoma; 0.302 µM with MDA-MB-435; over 100 µM in the assay on MOLT-4 leukemia; over 100 µM in the assay with NCI-H460 lung. Moreover, the TGI in the assay on OVCAR-4 ovarian, with SF-295 CNS, with SW-620 colon and with UACC-257 melanoma was over 100 µM in each case.

`CC(=O)SC(C[N+](=O)[O-])c1ccccc1` (stereo not drawn): the TGI in the assay with HL-60(TB) leukemia came out at 18.9 µM; with HS 578T breast, 23.4 µM; with LOX IMVI melanoma, 3.34 µM; with MDA-MB-435, 6.08 µM; with MOLT-4 leukemia, 5.36 µM; in the assay on NCI-H460 lung, 24.8 µM. For the same molecule, the TGI in the assay on OVCAR-4 ovarian worked out at 5.46 µM; in the assay with SF-295 CNS, 15.9 µM; with SW-620 colon, 5.6 µM; with UACC-257 melanoma it was 24.5 µM.
